Measurements: article PMC4906375, “Contribution of Amphipathicity and Hydrophobicity to the Antimicrobial Activity and Cytotoxicity of β-Hairpin Peptides” (ACS Infectious Diseases, 2016)
≈ marks a conversion by molar mass, not a printed value. Like-named read-outs stand apart in the source and are kept apart here. Residues, ends and D or L forms follow the SMILES beside them.

Columns and labels:
C. albicans ATCC 90028 = assay: microbe, parasite or virus in culture; type: cell-based, Candida albicans
Procedure: Both antibacterial and antifungal MIC assays were performed by a broth microdilution plate based method as per CLSI guidelines for antimicrobial susceptibility testing.[53],[54] […] Full assay details are included in the Supporting Information with a full list of strains tested in Table S1.
Antibacterial assay (Minimum Inhibitory Concentration [MIC]).
MIC assay was performed by a broth microdilution plate based method as per CLSI guidelines for antimicrobial susceptibility testing of aerobic bacteria.1 Compounds were prepared at 1.28 mg/mL solution in water. The tested strains, Table S1, were cultured in Luria broth (LB) (In Vitro Technologies, USB75852), at 37 °C overnight. A sample of culture was then diluted 40Pfold in fresh Muller Hinton broth (MHB) (Bacto laboratories, 211443) and incubated at 37 °C for 1.5P2 h. The compounds were serially diluted twoPfold across the wells, with compound concentrations ranging from 0.015 µg/mL to 512 µg/mL, plated in duplicate. The resultant midPlog phase cultures were diluted to the final concentration of 1×10^6 CFU/mL, then 50 µL was added to each well of the compoundP containing 96Pwell plates (Corning 3641, NonPbinding Surface [NBS]), giving a final compound concentration range of 0.008 µg/mL to 256 µg/mL and 5x10^5 CFU/mL. All the plates were covered and incubated at 37 °C for 18 h. MICs were determined visually, being defined as the lowest concentration showing no visible growth. Resazurin was added at 0.001% final concentration to each well and incubated for 2 h before MICs were rePread for confirmation using the colour change from blue to pink to indicate wells containing viable cells. The resazurin assay was added in some wells where some form of precipitate was present in otherwise clear wells, making it difficult to ascertain which wells had visible […]
Antifungal assay (Minimum Inhibitory Concentration [MIC]). MIC assay was performed by a broth microdilution plate based method as per CLSI guidelines for antimicrobial susceptibility testing.2 Fungi strains, Table S1, were cultured for 3 days on Yeast ExtractPPeptone Dextrose (YPD) (SigmaPAldrich, Y1500) agar at 30 °C. A yeast suspension of 1x10^6 to 5x10^6 CFU/mL was prepared from five colonies. These stock suspensions were diluted with Yeast Nitrogen Base (YNB) (Becton Dickinson, 233520) broth to a final concentration of 2.5 ×10^3 CFU/mL. All samples, compounds and standards were plated in 96Pwell plates (Corning 3641, NonPbinding Surface [NBS]), by adding 10 µL of 1.28 mg/mL stock solution to each well and 90 µL of media. Then, the samples were serial diluted (1:2) in 12 concentrations across the plate. The standard antifungal ranged from 256 […]
µg/mL to 0.12 µg/mL and compounds from 128 µg/mL to 0.06 µg/mL with final volumes of 50 µL per well, plated in duplicate. Then, 50 µL of the fungi suspension that was previously prepared in YNB broth to the final concentration of 2.5×10^3 CFU/mL, was added to each well of the compoundPcontaining plates, giving a final standard compound concentration range of 128 µg/mL to 0.06 µg/mL and tested compound from 64 µg/mL to 0.03 µg/mL. Plates were covered and incubated at 35 °C for 24 h. Candida albicans MICs were determined by measuring the absorbance at OD530. For Cryptococcus neoformans 10 µL of 0.06 % resazurin were added to the 24 h incubated plates. Then, these plates were incubated for another 3 h.
Cryptococcus neoformans MICs were determined by measuring the absorbance at OD570P600. […]

human erythrocytes [1] = details: red cells of human, 3 h
HEK293 cells = assay: Cytotoxicity, Alamar Blue (resazurin) assay; type: cell-based, human; details: HEK293; highest concentration (300 μM) tested
Procedure: (§1) Cytotoxicity to HEK293 and HepG2 cells was determined using the Alamar Blue (resazurin) assay,[55],[56] with 24 h of incubation and either 1 or 10% serum concentration. Full assay details are included in the Supporting Information.
(§2) Cytotoxicity. Cytotoxicity to HEK293 and HepG2 cells was determined using the Alamar Blue (resazurin) assay,3, 4 For the assays supplemented with 1 % FBS as final concentration the cells were seeded one day prior to the assay (3,000 per 20 µL for HEK293 and 4,000 per 20 µL for HepG2) with DMEM + 2 % FBS. The compounds were prepared as described below, using DMEM with no FBS instead to give the final FBS concentration of 1 %.
(§3) The highest concentration the compounds were tested was 300 µg/mL. A dilution series of 1:3 fold steps in DMEM (GIBCOPInvitrogen, cat. no. 11995P073) + 10 % FBS was created (concentration range of 600 µg/mL – 0.28 µg/mL), and 20 µL of these 2x concentrated compound dilutions were added in duplicates to wells of a black wall, clear bottom 384Pwells cell culture plate. For the assays with 1 % FBS the compounds in 0 % FBS were added to the existing cell plates in 2 % FBS. 200 µM Tamoxifen (Sigma T5648) served as negative control and in addition a serial dilution of tamoxifen, starting at 200 µM (74 µg/mL), was included as a dose response control (1 in 2 dilution series for tamoxifen). For the assay with 10 % FBS, HepG2 cells were seeded at 5000 cells per well, in a volume of 20 µL in DMEM medium + 10 % of FBS and added to the 20 µL of compound solution (total volume of 40 µL), resulting in a final compound concentration range of 300 µg/mL to 0.14 µg/mL.
(§4) Cells were incubated together with the compounds for 20 h at 37 °C, 5 % CO2.
(§5) After the incubation, 5 µL of 100 µM (25 µg/mL) resazurin dissolved in PBS (final concentration was approximately 11 µM) was added to each well. The plates were then incubated for 3 h at 37 °C, 5 % CO2. The fluorescence intensity was read using the TECAN Infinite M1000 PRO with excitation/emission 560/590. The data was analysed by Graph Pad Prism software. Results are presented as the average percentage of control ± SD for each set of duplicate wells using the following equation: Cell survival % = (FISAMPLE – FINegative/FIUNTREATED –FINegative)*100. (100 µg/mL tamoxifen was set as 0 % survival, media

HepG2 cells = assay: Cytotoxicity, Alamar Blue (resazurin) assay; type: cell-based, human; details: HepG2; highest concentration (300 μM) tested
Procedure: as §1, §2, §3, §4, §5

human erythrocytes [2] = assay: Hemolysis assay; details: 3 h, relative to 100% hemolysis by 1% Triton X-100

Compound	MIC (C. albicans ATCC 90028; ATCC 90028) [µg/mL]	hemolysis (%) at 300 μg/mL (human erythrocytes [1]) [%]	MIC (C. albicans ATCC 90028; C. albicans ATCC 90028, n = 4) [µg/mL]	cytotoxicity at the highest concentration tested (HEK293 cells)	cytotoxicity at the highest concentration tested (HepG2 cells)	hemolysis (%) at 300 μg/mL (human erythrocytes [2])
CC(C)[C@@H]1NC(=O)CNC(=O)[C@H](CC(N)=O)NC(=O)[C@H](CCCNC(=N)N)NC(=O)[C@H](Cc2ccc(O)cc2)NC(=O)[C@H](C(C)C)NC(=O)[C@@H]2CSSC[C@H](NC(=O)[C@H](C(C)C)NC(=O)[C@H](CCCNC(=N)N)NC1=O)C(=O)N[C@@H](Cc1ccc(O)cc1)C(=O)N[C@@H](CCCNC(=N)N)C(=O)N[C@@H](CCCNC(=N)N)C(=O)N[C@H](C(=O)N[C@@H](CC(N)=O)C(=O)O)CSSC[C@H](NC(=O)[C@H](Cc1ccccc1)NC(=O)CN)C(=O)N[C@@H](Cc1c[nH]c3ccccc13)C(=O)N[C@@H](Cc1ccc(O)cc1)C(=O)N[C@@H](C(C)C)C(=O)N2 [arenicin-3] (HELM PEPTIDE1{G.F.C.W.Y.V.C.V.Y.R.N.G.V.R.V.C.Y.R.R.C.N}$PEPTIDE1,PEPTIDE1,3:R3-20:R3|PEPTIDE1,PEPTIDE1,7:R3-16:R3$$$V2.0)	64 (≈ 24.5 µM)	4.4 ± 1.1	–	–	–	–
CC(C)[C@@H]1NC(=O)[C@H](CCCNC(=N)N)NC(=O)[C@H](Cc2ccccc2)NC(=O)[C@@H](NC(=O)[C@H](Cc2c[nH]c3ccccc23)NC(=O)[C@H](CCCNC(=N)N)NC(=O)[C@@H](N)CCCNC(=N)N)CSSC[C@@H](C(=O)N[C@@H](CCCNC(=N)N)C(N)=O)NC(=O)[C@H](CCCCN)NC(=O)[C@H](CCCNC(=N)N)NC(=O)[C@H](Cc2ccc(O)cc2)NC(=O)[C@@H]2CSSC[C@H](NC1=O)C(=O)N[C@@H](Cc1ccc(O)cc1)C(=O)N[C@@H](CCCNC(=N)N)C(=O)NCC(=O)N[C@@H](Cc1ccccc1)C(=O)N2 [polyphemusin-1] (HELM PEPTIDE1{R.R.W.C.F.R.V.C.Y.R.G.F.C.Y.R.K.C.R.[am]}$PEPTIDE1,PEPTIDE1,4:R3-17:R3|PEPTIDE1,PEPTIDE1,8:R3-13:R3$$$V2.0)	1 (≈ 0.407 µM)	–	–	–	–	–
[H][C@]12CSSC[C@]([H])(NC(=O)[C@]([H])([C@@H](C)CC)NC(=O)CNC(=O)[C@H](CCCNC(=N)N)NC(=O)[C@H](Cc3ccc(O)cc3)NC1=O)C(=O)N[C@@H](Cc1ccc(O)cc1)C(=O)N[C@@H](CCCNC(=N)N)C(=O)N[C@@H](CCCNC(=N)N)C(=O)N[C@H](C(=O)N[C@@H](CCCNC(=N)N)C(N)=O)CSSC[C@H](NC(=O)[C@H](Cc1c[nH]c3ccccc13)NC(=O)[C@@H](N)CCCCN)C(=O)N[C@@H](Cc1ccccc1)C(=O)N[C@@H](CCCNC(=N)N)C(=O)N[C@@H](C(C)C)C(=O)N2 [tachyplesin-1] (HELM PEPTIDE1{K.W.C.F.R.V.C.Y.R.G.I.C.Y.R.R.C.R.[am]}$PEPTIDE1,PEPTIDE1,3:R3-16:R3|PEPTIDE1,PEPTIDE1,7:R3-12:R3$$$V2.0)	4 (≈ 1.77 µM)	27.8 ± 3.9	–	–	–	–
CC[C@H](C)[C@H](NC(=O)[C@@H](NC(=O)[C@@H]1CCCN1C(=O)[C@@H](NC(=O)[C@@H]1CCCN1C(=O)[C@H](CCCCN)NC(=O)[C@H](CCCCN)NC(=O)[C@H](CO)NC(=O)CN)C(C)C)[C@@H](C)CC)C(=O)N[C@@H](Cc1ccc(O)cc1)C(=O)N[C@H]1CSSC[C@@H](C(=O)N[C@@H](CCC(N)=O)C(=O)N[C@@H](CCCNC(=N)N)C(=O)N[C@@H](CCSC)C(N)=O)NC(=O)[C@H](CCCCN)NC(=O)CNC(=O)[C@H]([C@@H](C)O)NC(=O)[C@H](CCCNC(=N)N)NC(=O)[C@H](CCCNC(=N)N)NC(=O)[C@H](CC(N)=O)NC1=O [thanatin]	–	–	64 (≈ 26.3 µM)	nontoxic	nontoxic	nonhemolytic
